Experimental data reported in patent US9797015B2, “Genetic variants associated with lithium response in bipolar disorder” (Academia Sinica, priority 2013, dated 2017).
Where “and” joins values, the source holds several entries; their conditions need not be identical. Identical values can stand only once.

How the values were obtained:
Assay type in all cases: in vivo, human
[1] = tested on: bipolar I (BPI) disorder patients; assay: Response to long-term lithium prophylaxis treatment, Alda Scale (retrospective, life chart; GWAS and replication groups)
Excerpt: We carried out a “discovery” GWAS, and two tests of replication. […] We genotyped each of the 1647 patients by array (see below).
To assess response to long-term lithium prophylaxis treatment in BPI disorder, we prepared a life chart with graphic depiction of lifetime clinical course for each of the BPI patients recruited before June 2012 (N=1761). […] We depicted this information graphically, based on integrated information gathered from direct interview with patients and their family members, interviews with in-charge psychiatrists, and a thorough medical chart review.
The phenotype of lithium response was assessed based on the life chart, using the Retrospective Criteria of Long-Term Treatment Response in Research Subjects with Bipolar Disorder developed by Martin Alda and Colleagues (Alda Scale). The Alda scale has two criteria. […] Criterion B (B1-B5, each rated as 0, 1 or 2 points) is used to establish whether there is a causal relationship between clinical improvement and the treatment. B1 and B2 indicate the recurrence risk off the lithium treatment [number (B1) and frequency (B2) of episodes]. B3 is a measure of the length of lithium treatment. B4 indicates compliance with lithium. B5 is a measure of concomitant psychotropic medication during periods of stability. The total score is obtained by subtracting the sum of the B scores from the A score.
In investigating a causal relationship between lithium treatment and clinical improvement of individual patients, it is important to ensure (i) comparability in clinical course between on-lithium and off-lithium periods (number, frequency and severity of episodes); (ii) satisfactory drug compliance, and (iii) the minimization of influence from additional medications (hypnotics, antidepressants, antipsychotics, and other mood stabilizers). We determined inclusion criteria accordingly, to minimize the misclassification of responders and non-responders.
See, e.g., Grof et al., J Clin Psychiatry 2002; 63:942-7; and Squassina et al, Pharmacogenomics 2011; 12:1559-69.

[2] = tested on: bipolar I (BPI) disorder patients; assay: Follow-up study (second test of replication) of 24 patients on lithium monotherapy, Alda Scale; parameters: key to A − B (total score of Alda Scale): Alda total = A score minus sum of B1-B5 scores (each 0-2); conditions: for A − B (total score of Alda Scale): individual patients, follow-up 2-5 yrs
Excerpt: In a second test of replication, we genotyped an independent series of 24 patients who had received lithium monotherapy for at least 2 years, through May 2012. We based their inclusion on a life chart (see Phenotype Definition and Assessment below) constructed for all patients in the 1647-patient sample. Each of these 24 patients had good drug adherence to mood stabilizer(s) other than lithium prior to their commencement of lithium monotherapy but with unsatisfactory response.
The phenotype of lithium response was assessed based on the life chart, using the Retrospective Criteria of Long-Term Treatment Response in Research Subjects with Bipolar Disorder developed by Martin Alda and Colleagues (Alda Scale). The Alda scale has two criteria. Criterion A measures the extent of clinical improvement in illness activity and takes into account the frequency, duration, and severity of episodes during periods of lithium treatment considered adequate in duration and dosage, compared with the frequency, duration, and severity of episodes during periods off the lithium treatment, on a scale from 0 (no change, or exacerbation of disease severity) to 10 (complete remission). Criterion B (B1-B5, each rated as 0, 1 or 2 points) is used to establish whether there is a causal relationship between clinical improvement and the treatment. B1 and B2 indicate the recurrence risk off the lithium treatment [number (B1) and frequency (B2) of episodes]. B3 is a measure of the length of lithium treatment. B4 indicates compliance with lithium. B5 is a measure of concomitant psychotropic medication during periods of stability. The total score is obtained by subtracting the sum of the B scores from the A score.
(§1) For patients in the second test of replication, we carried out regular follow-up evaluations (usually monthly and at least once every 3 months), including assay of lithium to assess drug adherence, and a SCAN interview to assess clinical condition, at outpatient clinics for at least 2 years.

[3] = Reported lithium blood levels during prophylaxis therapy; conditions: study patients with good adherence to lithium prophylaxis therapy
Excerpt: To assess response to long-term lithium prophylaxis treatment in BPI disorder, we prepared a life chart with graphic depiction of lifetime clinical course for each of the BPI patients recruited before June 2012 (N=1761). This life chart included all manic, hypomanic, and depressive episodes with date of onset (year and month), duration, and severity (including the extent of functional disability, hospitalization, and the presence of psychotic features), all doses of and duration of treatment with psychotropics and mood stabilizers known have been prescribed, drug adherence recorded in medical chart for all visits at outpatient clinics, all recorded blood levels of mood stabilizers, and any adverse drug reactions. We depicted this information graphically, based on integrated information gathered from direct interview with patients and their family members, interviews with in-charge psychiatrists, and a thorough medical chart review. Based on this life chart, we determined whether individual patients had good drug adherence.
as §1

[4] = 394 bipolar I patients under lithium prophylaxis, B5 = 2 (prolonged antidepressant and/or antipsychotic and/or mood stabilizer)

[Li] [lithium]
Good response to treatment (A − B ≧ 6) ([1]; 394 bipolar I patients under lithium prophylaxis, B5 = 1 (low dose antidepressants and/or antipsychotics and/or prolonged sleep medication)): 124 (50.4) N(%)
Good response to treatment (A − B ≧ 6) [1, 4]: 5 (5.0) N(%)
Poor response to treatment (A − B < 6) [1, 4]: 96 (95.0) N(%)
Good response to treatment (A − B ≧ 6) ([1]; 394 bipolar I patients under lithium prophylaxis, additional medication B5 = 0 (none except infrequent sleep medication)): 30 (63.8) N(%)
Poor responders to treatment at cutoff 5/6 ([1]; study subjects with a B5 score of 2): 95.0%
total Alda score, range ([2]; carriers of the response alleles (N=16), good response): 8-10
A − B (total score of Alda Scale) ([2]; rs17026688 genotype CC): 3 (3×) and 2 (2×) and 0 (3×)
A − B (total score of Alda Scale) ([2]; rs17026688 genotype CT): 10 (5×) and 9 (6×) and 8
A − B (total score of Alda Scale) ([2]; rs17026688 genotype TT): 9
total Alda score, range ([2]; non-carriers (N=8), poor response): 0-3
lithium blood levels [3]: ≥ 0.5 mM
